In series [1] the test system is SF-268. Put plainly: Cytotoxicity against human SF268 cells after 48 hrs by SRB assay. In kind it is functional. The following applies: SF-268, 48 h.
Series [2] has as its system MCF7. Description: Cytotoxicity against human MCF7 cells after 48 hrs by SRB assay. In kind it is functional. To be noted: MCF7, 48 h.
Series [3] concerns NCI-H460. Put plainly: Cytotoxicity against human H460 cells after 48 hrs by SRB assay. It is filed as functional. The following applies: NCI-H460, 48 h. In general terms: In SRB staining, fixed cells bind dye roughly in proportion to their protein.
The test system of series [4] is HT-29. Description: Cytotoxicity against human HT-29 cells after 48 hrs by SRB assay. To be noted: HT-29, 48 h. In kind it is functional.
The nature of series [5]: Cytotoxicity against […] cells after 48 hrs by SRB assay. It is filed as cell-based, Cricetulus griseus. The following applies: chinese hamster, CHO-K1 cells.

Broadly, the GI50 is the concentration at which growth is held to half of that of the control. Higher therefore signals less potent growth inhibition.

As to `C=C1CCCC(C)(C)C1CCC1(C)C=Cc2cc(O)cc(OC)c2O1` (stereo not given) [METACHROMIN U], the GI50 in series [1] was determined as 32 µM; in series [2] it was 29 µM; in series [3], 37 µM; in series [4] it was 30 µM. The same compound came in with a concentration for 50% growth inhibition (GI50) at 48 h in series [5] of 27 µM.
For `C=C1CCCC(C)(C)C1CC/C(C)=C/Cc1cc(O)ccc1O` (stereo not given) [METACHROMIN V], in that order: 5.1 µM, 3.2 µM, 5.1 µM, 10 µM and 2.1 µM.
For `C=C1CCCC(C)(C)C1CCc1ccc2c(c1)C(=O)C=C(OC)C2=O` (stereo not given) [METACHROMIN W], in that order: 104 µM, 107 µM, 50 µM, 130 µM and 89 µM.
For `CC(=O)O[C@H]1C(=O)[C@@]2(C)[C@H]([C@H](OC(=O)c3ccccc3)[C@]3(O)C[C@H](OC(=O)[C@H](O)[C@@H](NC(=O)c4ccccc4)c4ccccc4)C(C)=C1C3(C)C)[C@]1(OC(C)=O)CO[C@@H]1C[C@@H]2O` [PACLITAXEL] the same measures were 0.012 µM, 0.012 µM, 0.024 µM, 0.012 µM and 5.9 µM.
In the case of `CN[C@@H]1C[C@H]2O[C@@](C)([C@@H]1OC)n1c3ccccc3c3c4c(c5c6ccccc6n2c5c31)C(=O)NC4` [STAUROSPORINE], the GI50 amounted to 0.044 µM in series [1], 11 µM in series [2], 3.6 µM in series [3] and 3.6 µM in series [4]. The compound further had a GI50 at 48 h in series [5] of 0.13 µM.

For the origin of these results see ChEMBL document CHEMBL1782002, “Metachromins U-W: cytotoxic merosesquiterpenoids from an Australian specimen of the sponge Thorecta reticulata” (J Nat Prod, 2011).
